This note sets out measurements from PubChem BioAssay AID602435 (Southern Research Specialized Biocontainment Screening …, 2012).

One may read the IC90 as the point of the concentration-response curve where the effect stands at 90%. The IC50 is the point on the concentration scale where inhibition reaches its midpoint. Lower therefore signals inhibition by little substance.

Where “and” joins values, the source holds several entries; their conditions need not be identical. Equal values may be shown once. Records with an inconclusive call do not appear. Calls of active or inactive are those of the source. No rule for the calls is given here.

Experiment [1] deals with Mycobacterium tuberculosis H37Rv growth, 7H9 medium. As to the kind of experiment: M. tuberculosis growth inhibition, dose response, 7H9 medium, purified and synthesized samples, set 9 (AID 602435). The following applies: for IC50: measured here: IC50 growth inhibition replicates.
Assay in experiment [2]: as above
The following applies: Mycobacterium tuberculosis H37Rv growth, 7H9 medium.

As for `CC(C)CCNC(=O)CSc1nc2c(c(=O)[nH]1)CCCC2`, in experiment [1], the IC90 was 6.12 µM and the IC50 was 4.43 µM.

For the molecule `CCOC(=O)CSc1ncnc2c1cnn2-c1ccccc1`, in experiment [1], the IC90 is 39.5 µM and the IC50 was 15.3 µM.

In experiment [1], `O=C(c1ccc(CNc2c(N3CCCC3)c(=O)c2=O)cc1)N1CCC(c2ccccc2)CC1` yielded an IC50 of 79.7 µM.

Regarding `O=C(NCCc1ccc(Cl)cc1)C1CCC(CNc2c(N3CCCCC3)c(=O)c2=O)CC1` (stereo not given), in experiment [1], the IC50 was 37.1 µM.

For the molecule `CC1CCCN(c2c(NCc3ccc(C(=O)N4CC=C(c5ccccc5)CC4)cc3)c(=O)c2=O)C1` (stereo not given), in experiment [1], the IC90 is 11.8 µM and the IC50 was determined as 7.54 µM.

Turning to `CC(C)CCNC(=O)CSc1nc2c(c(=O)[nH]1)CCCCC2`, the IC50 in experiment [1] worked out at 99.6 µM.

Molecule `CC(=O)c1ccc(NC(=O)c2ccc(CNc3c(N4CCOCC4)c(=O)c3=O)cc2)cc1` came in with an IC50 in experiment [1] of 50 µM.

For the molecule `COc1ccc(N2CCN(C(=O)c3ccc(CNc4c(N5CCCC(C)C5)c(=O)c4=O)cc3)CC2)cc1` (stereo not given), in experiment [1], the concentration for an effect of 90% (IC90) was 46.9 µM and the IC50 came to 28.1 µM.

`O=C(NCc1ccc(C(=O)N2CCC(c3ccccc3)CC2)cc1)NC1CCCCC1`: in experiment [1], the IC90 was 88.7 µM and the 50% inhibitory concentration (IC50) stood at 69.1 µM.

In the case of `COC(=O)CSc1ncnc2c1cnn2-c1ccc(C)cc1C`, in experiment [1], the IC90 was 3.65 µM and the IC50 is 2.57 µM.

As to `O=C(c1ccc(CNc2c(N3CCCC3)c(=O)c2=O)cc1)N1CCN(c2ccccc2)CC1`, in experiment [1], the IC50 stood at 62.3 µM.

For `CCOC(=O)N1CCC(Nc2c(Nc3cccc(CC)c3)c(=O)c2=O)CC1`, in experiment [2] (at 50 µM (top of the series)), the growth inhibition was 3.52% (inactive).

For the molecule `CCOc1ccc(NC(=O)c2ccc(CNc3c(N4CCCC4)c(=O)c3=O)cc2)cc1`, in experiment [2] (at 100 µM (top of the series)), the growth inhibition is -10% (inactive).

Turning to `O=C(CSc1nc2c(c(=O)[nH]1)CCC2)NC1CCCCC1`, in experiment [1], the IC90 was 3.92 µM and the IC50 is 2.97 µM.

`O=C(c1ccc(CNc2c(N3CCCC3)c(=O)c2=O)cc1)N1CCc2ccccc2C1`: the half-inhibitory concentration (IC50) in experiment [1] turned out to be 5.06 µM.

Consider `CC(C)OC(=O)CSc1ncnc2c1cnn2-c1ccccc1`, for which the IC50 in experiment [1] worked out at 28.7 µM.

The molecule `O=C(c1ccc(CNc2c(N3CCOCC3)c(=O)c2=O)cc1)N1CCN(c2ccccc2)CC1` had an IC50 in experiment [1] of 3.45 µM.

In turn, `CC1CCCN(C(=O)c2ccc(CNc3c(N4CCCCC4)c(=O)c3=O)cc2)C1` (stereo not given) gave an IC50 in experiment [1] of 3.7 µM.

On to `CC1CC(C)CN(C(=O)C2CCC(CNc3c(N4CCCCC4)c(=O)c3=O)CC2)C1` (stereo not given), for which, in experiment [1], the half-maximal inhibitory concentration (IC50) is 13.7 µM and 29 µM.

Take `CCC(C)NC(=O)CSc1nc2ccccc2c(=O)[nH]1` (stereo not given): in experiment [1], the concentration for an effect of 90% (IC90) was 16.9 µM and the IC50 is 15.7 µM.

For `O=C(c1ccc(CNc2c(N3CCOCC3)c(=O)c2=O)cc1)N1CC=C(c2ccccc2)CC1`, in experiment [1], the IC90 was 6.81 µM and the IC50 was 0.957 µM.

Turning to `O=C(NCCc1ccc(Cl)cc1)c1ccc(CNc2c(N3CCOCC3)c(=O)c2=O)cc1`, in experiment [1], the IC90 is 19.1 µM; the IC50 is 10.5 µM and 12.5 µM.

`O=C(C1CCC(CNc2c(N3CCCCC3)c(=O)c2=O)CC1)N1CCCCC1` (stereo not given) returned an IC50 in experiment [1] of 25.2 µM.

Consider `CC(C)CCNC(=O)CSc1nc2ccccc2c(=O)[nH]1`, for which, in experiment [1], the IC90 was 0.78 µM and the IC50 turned out to be 0.696 µM.

Take `Cc1cccc(N2CCN(C(=O)c3ccc(CNc4c(N5CCC(C)CC5)c(=O)c4=O)cc3)CC2)c1C`: the IC50 in experiment [1] stood at 42.1 µM.

In experiment [1], `CC1CCCN(C(=O)C2CCC(CNc3c(N4CCCCC4)c(=O)c3=O)CC2)C1` (stereo not given) showed a 50% inhibitory concentration (IC50) of 26.2 µM.

`O=C(CSc1nc2ccccc2c(=O)[nH]1)NC1CCOCC1`: in experiment [1], the IC90 is 26 µM and the IC50 was 23.1 µM.

Turning to `CC1CCN(C(=O)c2ccc(CNc3c(N4CCCC4)c(=O)c3=O)cc2)CC1`, the IC50 in experiment [1] was 8.48 µM.

For `COCCNC(=O)CSc1nc2ccccc2c(=O)[nH]1`, the growth inhibition in experiment [2] (at 100 µM (top of the series)) is -5.73% (inactive).

`COC(=O)C(Cc1ccccc1)NC(=O)CSc1nc2ccccc2c(=O)[nH]1` (stereo not given): the growth inhibition in experiment [2] (at 100 µM (top of the series)) is 4.82% (inactive).

Regarding `COc1ccc(N2CCN(C(=O)c3ccc(CNC(=O)NCc4ccc(Cl)cc4)cc3)CC2)cc1`, the growth inhibition in experiment [2] (at 100 µM (top of the series)) was 3.4% (inactive).

On to `Cc1cccc(N2CCN(C(=O)c3ccc(CNc4c(N5CCC(C)CC5)c(=O)c4=O)cc3)CC2C)c1` (stereo not given), for which, in experiment [1], the IC90 is 41.3 µM and the IC50 stood at 26.9 µM.

For the molecule `O=C(c1ccc(CNc2c(N3CCOCC3)c(=O)c2=O)cc1)N1CCC(c2ccccc2)CC1`, in experiment [1], the IC90 was 16 µM and the IC50 is 3.43 µM.

Take `O=C(CSc1nc2c(c(=O)[nH]1)CN(Cc1ccccc1)CC2)NC1CCCCC1`: the growth inhibition in experiment [2] (at 100 µM (top of the series)) is -0.3% (inactive).

Consider `O=C(CSc1nc2ccccc2c(=O)[nH]1)NC1CCCCC1`, for which, in experiment [1], the 90% effect concentration (IC90) is under 0.29 µM and the IC50 was determined as 0.195 µM.

Turning to `O=C(NCc1ccc(C(=O)N2CCC(c3ccccc3)CC2)cc1)Nc1ccc(Cl)cc1`, in experiment [1], the IC90 was 94 µM and the IC50 is 74.4 µM.

Turning to `COc1ccc(N2CCN(C(=O)c3ccc(CNc4c(N5CCOCC5)c(=O)c4=O)cc3)CC2)cc1`, the IC50 in experiment [1] was 6.35 µM and 6.09 µM.

Regarding `O=C(NCc1ccc(C(=O)N2CCN(c3ccccc3)CC2)cc1)NC1CCCCC1`, the growth inhibition in experiment [2] (at 100 µM (top of the series)) is 2.95% (inactive).

Take `O=C(c1ccc(CNc2c(N3CCCC3)c(=O)c2=O)cc1)N1CC=C(c2ccccc2)CC1`: in experiment [1], the IC50 was 3.22 µM and 2.96 µM.

In the case of `O=C(CSc1nc2c(c(=O)[nH]1)CCCC2)NC1CCCCC1`, in experiment [1], the IC90 was 3.12 µM and the IC50 amounted to 1.97 µM.

`CCOC(=O)CSc1ncnc2c1cnn2-c1ccc(C)cc1C`: in experiment [1], the IC90 is 3.65 µM and the IC50 is 2.42 µM.

`CC1CC(C)CN(C(=O)c2ccc(CNc3c(N4CCCC4)c(=O)c3=O)cc2)C1` (stereo not given) showed an IC50 in experiment [1] of 8.84 µM.
